Source: patent US9765022B2, “Disulfide compounds for delivery of pharmaceutical agents” (Tufts University, priority 2013, dated 2017)

Test system: 4T1-12B breast tumors
Test: In vivo cancer treatment, tumor growth inhibition
Design: species or system BALB/c mice
Conditions: tail-vein injection every three days, 5.5 mg/kg lipid and 330 μg/kg saporin
Protocol: Composition 31 (i.e., containing 1-O16B and saporin) and Composition 32 (i.e., containing 1-O18B and saporin) were tested for in vivo inhibiting tumor growth following the procedure described below. More specifically, BALB/c mice bearing 4T1-12B breast tumors were developed from a 4T1-12B cell suspension in DMEM supplemented with 10% FBS at a concentration of 10^7 cells/mL. An aliquot (100 μL) of the cell suspension was injected into the mammary fat pad of 4-6 week-old female BALB/c mice. The mice were sorted into four groups randomly (n=7 for treatment group, n=5 for control groups) seven days after the injection. The mice were injected through tail-vein every three days. For the treatment group, each mouse was injected with 5.5 mg/kg of 1-O16B or 1-O18B and 330 μg/kg of saporin. Tumor volumes were measured every three days.
PBS without 1-O16B, 1-O18B, and saporin was also injected as a control. Comparative studies were also conducted using saporin in PBS without 1-O16B and 1-O18B.

## saporin
Day 16
  tumor size: more than 120 mm^3
Day 22
  tumor size: more than 250 mm^3
